In patent publication US20230213511A1, “METHOD FOR EVALUATING ALLERGEN INACTIVATORS AND KIT FOR EVALUATING ALLERGEN INACTIVATORS” (SCHOOL CORPORATION, AZABU VETERINARY MEDICINE EDUCATIONAL …, priority 2020, published 2023):

Assays:
[1] = target: T1, purified mite allergens "Der f1" (Dermatophagoides farinae, UniProt P16311); assay: Immunostaining of purified mite allergens supported on a PVDF membrane after treatment using the test drug; format: biochemical; settings: two hours at normal temperature, vs PBS (−); for capacity for recognition by the specific antibodies (anti-Der f1 monoclonal antibodies), immunostaining: 5 ppm Bi-jia water, 5 ppm sodium hypochlorite, 6M guanidine; for properties enabling recognition by the specific antibodies (anti-Der f1 monoclonal antibodies), immunostaining: test example 3, 30 v/v % hydrogen peroxide water, 10 mM hydrochloric acid (pH 2)
T1 construct: purchased ITEA Inc
T1 sequence (P16311 99-321): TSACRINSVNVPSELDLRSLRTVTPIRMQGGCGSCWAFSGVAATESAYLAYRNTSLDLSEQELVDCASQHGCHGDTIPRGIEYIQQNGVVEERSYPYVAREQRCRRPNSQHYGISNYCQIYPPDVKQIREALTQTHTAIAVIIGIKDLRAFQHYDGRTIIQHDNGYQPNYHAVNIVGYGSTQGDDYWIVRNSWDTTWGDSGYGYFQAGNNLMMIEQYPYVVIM
Description: (3-1. PVDF membrane) • A PVDF membrane (pore diameter: 0.45 μm) was immersed in methanol to be made hydrophilic, after which a prescribed quantity of allergens was blotted onto the PVDF membrane in a dot formation (0-100 ng/dot).
(4. Treatment using test drug) • The allergen-supporting membrane was washed three times using PBS (−). • The membrane was placed in a plastic container and immersed in 5 mL of a solution containing the test drug. • The membrane was allowed to stand for two hours at normal temperature. • The solution of the test drug was discarded, and the membrane was washed three times using PBS (−). • Protein staining or immunostaining was carried out.
(6. Immunostaining) • The allergen-supporting membrane (after “4. Treatment using test drug” described above) was immersed in 1 w/v % gelatin-containing PBS and was blocked for ten minutes at 37° C. • The blocking liquid was discarded, and the membrane was washed three times using PBS (−). • Primary antibodies were diluted using 1 w/v % BSA-containing PBST (0.02 v/v % Tween-20) so as to reach a concentration of 1 μg/mL, 2 mL of the primary antibodies was added to the blocked membrane, and a reaction was carried out for 30 minutes at normal temperature while the membrane was shaken. • A primary antibody reaction solution was discarded, and the membrane was washed three times using PBST. • HRP-labeled secondary antibodies (product name “HRP-Goat anti-Mouse IgG,” made by Zymed Laboratories) were diluted using 1 w/v % BSA-containing PBST (0.02 v/v % Tween-20) so as to reach a concentration of 3 μg/mL, 2 mL of the secondary antibodies was added to the membrane reacted with the primary antibodies, and a reaction was carried out for 30 minutes at normal temperature while the membrane was shaken. • A secondary antibody reaction solution was discarded, and the membrane was washed four times using PBST. • An amount of 1 mL of a coloring reagent solution (product name “Ez West Blue,” made by ATTO Co., Ltd.) was added to the membrane reacted with the secondary antibodies, and a reaction was carried out for ten minutes. • The membrane was washed using a large amount of distilled water, and the reaction was stopped. • The membrane was allowed to spontaneously dry.
(§1) Specifically, purified mite allergens were dot-blotted in an amount of 0, 12.5, 25, 50, or 100 ng onto a single PVDF membrane cut into a rectangular strip to produce an allergen-supporting membrane. Two identical allergen-supporting membranes were provided in this manner. First, the two allergen-supporting membranes were treated using the same test drug, a washing treatment using PBS was furthermore carried out, and then one of the treated membranes was supplied for protein staining using the gold stain and the other of the treated membranes was supplied for immunostaining using the anti-Der f1 monoclonal antibodies.
as §1, with “4, 20,” for “12.5, 25, 50,”, “antibodies. […]” for “antibodies.”

[2] = tested on: extract from the grass Phleum pratense, the weed Plantago lanceolata, or house dust containing Dermatophagoides pteronyssinus; settings: extract treated using a 1% aqueous solution of tannic acid; cited from earlier work
[3] = target: T2, purified Japanese cedar pollen allergens "Cry j1" (Cryptomeria japonica, UniProt P18632); assay: Immunostaining of Cry j1 on multiscreen filter plate with cellulose mixed ester filter membrane after treatment using the test drug; format: biochemical; settings: test example 8, two hours at normal temperature, 5 ppm NaClO (Bi-jia water), 6M guanidine, other drugs of FIG. 15, vs PBS
T2 construct: purchased ITEA Inc
T2 sequence (P18632 22-374): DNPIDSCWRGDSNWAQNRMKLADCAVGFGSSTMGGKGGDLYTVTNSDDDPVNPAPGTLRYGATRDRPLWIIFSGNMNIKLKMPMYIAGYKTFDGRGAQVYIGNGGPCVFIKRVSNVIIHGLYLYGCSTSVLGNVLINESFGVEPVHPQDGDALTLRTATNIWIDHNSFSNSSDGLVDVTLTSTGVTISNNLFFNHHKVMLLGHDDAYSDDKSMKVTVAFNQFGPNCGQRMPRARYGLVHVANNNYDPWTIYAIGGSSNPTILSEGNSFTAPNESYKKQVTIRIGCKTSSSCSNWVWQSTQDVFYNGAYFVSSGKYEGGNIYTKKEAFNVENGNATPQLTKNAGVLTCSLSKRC
Description: A test for evaluating allergen inactivators was conducted using, as an allergen support, a multiscreen filter plate (MultiScreen HTS HA sterile plate, Millipore, #MSHAS4510) provided with a filter membrane composed of a cellulose mixed ester (substance similar to nitrocellulose) in each well. Specifically, as per the main points of the operational procedure for the test shown in FIG. 6, a test was conducted in accordance with the following protocol.
(1. Formulation of Allergen-Supporting Membrane and Treatment Carried Out Using Test Drug) • An amount of 2 μL of purified Japanese cedar pollen allergens (product name “Cry j1”) (made by ITEA Inc.) (origin: Japanese cedar (Cryptomeria japonica)) in each stage of dilution (50, 10, 2, or 0 ng/μL) was added dropwise into each well of the multiscreen filter plate and was allowed to spontaneously dry. • Filtration washing was carried out three times using 200 μL of PBS. • An amount of 200 μL of the drugs being examined (the various drugs being examined, and concentrations thereof, shown in FIG. 15; PBS as a control) was added, and the multiscreen filter plate was allowed to stand for two hours at normal temperature. • The drugs being examined were removed through pipetting. • Filtration washing was carried out three times using 200 μL of PBS. • To immunostaining or gold staining […]

[4] = target: T2, purified Japanese cedar pollen allergens "Cry j1"; assay: Immunostaining of Cry j1 on multiscreen filter plate with PVDF filter membrane after treatment using the test drug; format: biochemical; settings: test example 9, two hours at normal temperature, 0.1% SDS, 6M guanidine, other drugs of FIG. 16, vs PBS
Text: […]

[5] = test example 2, PVDF membrane, 0, 4, 20, 100 ng/dot, 0.1 w/v % SDS
[6] = PVDF membrane, 0, 4, 20, 100 ng/dot

In the case of `OCl` [sodium hypochlorite], the “capacity for recognition by the specific antibodies (anti-Der f1 monoclonal antibodies), immunostaining” value ([1]; test example 1, PVDF membrane, 0-100 ng/dot) is reported as “notably weakened” and the “capacity for recognition by the specific antibodies (anti-Der f1 monoclonal antibodies), immunostaining” value [1, 5] is reported as “notably weakened”.
With `Cl` [hydrochloric acid] the “properties enabling recognition by the specific antibodies (anti-Der f1 monoclonal antibodies), immunostaining” value [1, 6] was “weakened”.
For `OO` [hydrogen peroxide water, hydrogen peroxide], the “properties enabling recognition by the specific antibodies (anti-Der f1 monoclonal antibodies), immunostaining” value [1, 6] was “weakened”.
For `O=C(OC[C@H]1O[C@@H](OC(=O)c2cc(O)c(O)c(OC(=O)c3cc(O)c(O)c(O)c3)c2)[C@H](OC(=O)c2cc(O)c(O)c(OC(=O)c3cc(O)c(O)c(O)c3)c2)[C@@H](OC(=O)c2cc(O)c(O)c(OC(=O)c3cc(O)c(O)c(O)c3)c2)[C@@H]1OC(=O)c1cc(O)c(O)c(OC(=O)c2cc(O)c(O)c(O)c2)c1)c1cc(O)c(O)c(OC(=O)c2cc(O)c(O)c(O)c2)c1` [tannic acid], the “allergenicity in a cutaneous reaction test” value [2] is listed as “allergenicity can be mitigated”.
For `N=C(N)N` [guanidine], the “capacity for recognition by the specific antibodies (anti-Cry j1 monoclonal antibodies), immunostaining” value [3] was “notably weakened” and the “capacity for recognition by the specific antibodies (anti-Cry j1 monoclonal antibodies), immunostaining” value [4] was “notably weakened”.
For `CCCCCCCCCCCCOS(=O)(=O)[O-].[Na+]` [SDS], the “capacity for recognition by the specific antibodies (anti-Der f1 monoclonal antibodies), immunostaining” value [1, 5] was “notably weakened” and the “capacity for recognition by the specific antibodies (anti-Cry j1 monoclonal antibodies), immunostaining” value [4] was “notably weakened”.
